Results reported in paper PMC12669672, “Structural insights into selective and dual antagonism of EP2 and EP4 prostaglandin receptors” (The EMBO Journal, 2025).
Several values for one entry are separate records, joined by “and”; a condition that tells them apart may be missing. Equal entries are not always repeated. Where two headings read alike, the source gives them in different places.

Assays:
Assay in all cases: GloSensor cAMP assay, inhibition of constitutive activity
Assay type in all cases: cell-based
[1] = molecular target: T1, constitutively active EP4 S319A (Homo sapiens, UniProt P35408, S319A)
T1 construct: The full-length EP2 or EP4 was cloned into the pcDNA3.1 vector (Invitrogen), incorporating an N-terminal FLAG tag; expressed in transfected cells; host or cells: AD293
Experimental: (§1) The full-length EP2 or EP4 was cloned into the pcDNA3.1 vector (Invitrogen), incorporating an N-terminal FLAG tag. AD293 cells were seeded in six-well plates containing DMEM supplemented with 10% dialyzed FBS 1 day prior to transfection. Following overnight growth, cells were transfected with a 1:1 ratio of receptor construct and GloSensor22F cAMP biosensor (Promega) plasmids.
(§2) Twenty-four hours post-transfection, the cells were transferred to CO2-independent media containing 2% GloSensor cAMP Reagent (Promega) and distributed into 384-well assay plates at a density of 4000 cells per well in 10 μL. […] The plates were then incubated at 37 °C for an additional hour before luminescence measurements were taken using an EnVision plate reader.
(§3) Data analysis was performed using GraphPad Prism software v8.0.1. A nonlinear regression analysis, employing a sigmoidal dose–response model, was conducted to determine the Emax values and half-maximum inhibitory concentrations (IC50) for each compound tested.

[2] = molecular target: T2, constitutively active EP2 M116A (Homo sapiens, UniProt P43116, M116A)
T2 construct: The full-length EP2 or EP4 was cloned into the pcDNA3.1 vector; FLAG (N); expressed in transfected cells; host or cells: AD293 cells
Experimental: as §1, §2, §3

[3] = molecular target: T3, constitutively active EP4 V72A (Homo sapiens, UniProt P35408, V72A)
T3 construct: The full-length EP2 or EP4 was cloned into the pcDNA3.1 vector (Invitrogen), incorporating an N-terminal FLAG tag; expressed in transfected cells; host or cells: AD293
Experimental: as §1, §2, §3

[4] = molecular target: T4, constitutively active EP2 W186A (Homo sapiens, UniProt P43116, W186A)
T4 construct: The full-length EP2 or EP4 was cloned into the pcDNA3.1 vector; FLAG (N); expressed in transfected cells; host or cells: AD293 cells
Experimental: as §1, §2, §3

[5] = molecular target: T5, constitutively active EP4 WT (Homo sapiens, UniProt P35408)
T5 construct: The full-length EP2 or EP4 was cloned into the pcDNA3.1 vector (Invitrogen), incorporating an N-terminal FLAG tag; expressed in transfected cells; host or cells: AD293
Experimental: as §1, §2, §3

[6] = no PGE2, pIC50 mutant - pIC50 WT, mean

T4 sequence (P43116 whole entry W186A): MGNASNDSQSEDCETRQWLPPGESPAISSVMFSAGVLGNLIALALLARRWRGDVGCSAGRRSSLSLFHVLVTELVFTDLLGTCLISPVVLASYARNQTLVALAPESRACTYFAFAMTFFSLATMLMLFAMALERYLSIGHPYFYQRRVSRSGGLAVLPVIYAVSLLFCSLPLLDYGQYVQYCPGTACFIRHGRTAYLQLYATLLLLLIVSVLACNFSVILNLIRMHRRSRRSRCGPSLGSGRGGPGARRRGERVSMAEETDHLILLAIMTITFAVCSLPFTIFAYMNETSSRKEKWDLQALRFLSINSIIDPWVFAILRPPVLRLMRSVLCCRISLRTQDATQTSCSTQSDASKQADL
T1 sequence (P35408 whole entry S319A): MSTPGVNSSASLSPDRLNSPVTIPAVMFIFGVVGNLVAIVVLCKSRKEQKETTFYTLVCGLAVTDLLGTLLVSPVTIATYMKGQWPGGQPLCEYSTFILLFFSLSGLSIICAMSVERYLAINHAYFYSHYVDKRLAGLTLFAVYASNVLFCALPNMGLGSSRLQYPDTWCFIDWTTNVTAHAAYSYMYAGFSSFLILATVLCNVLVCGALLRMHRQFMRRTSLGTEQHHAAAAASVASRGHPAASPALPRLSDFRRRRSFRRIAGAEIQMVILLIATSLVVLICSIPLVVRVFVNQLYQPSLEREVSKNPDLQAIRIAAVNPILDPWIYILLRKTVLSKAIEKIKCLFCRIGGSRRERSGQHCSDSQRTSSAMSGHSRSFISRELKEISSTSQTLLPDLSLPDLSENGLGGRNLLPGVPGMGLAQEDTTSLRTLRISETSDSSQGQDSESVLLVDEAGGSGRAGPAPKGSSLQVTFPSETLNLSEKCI
T2 sequence (P43116 whole entry M116A): as the sequence (P43116 whole entry W186A) above, with M116A, A186W counted along it
T5 sequence (P35408 whole entry): as the sequence (P35408 whole entry S319A) above, with A319S counted along it
T3 sequence (P35408 whole entry V72A): as the sequence (P35408 whole entry S319A) above, with V72A, A319S counted along it

CCc1nnc(NS(=O)(=O)c2ccc(NC(=S)NC(=O)/C=C/c3ccc(F)cc3)cc2)s1 [TG6-129]
IC50 [1]: 20 µM
remaining activity at 100 µM ([1]; 1 h, TG6-129 log([M]) -4.00, EP4-S319A, read-out: % cAMP activity (normalized to WT)): 6.8%
remaining activity at […] ([1]; 1 h, TG6-129 log([M]) -4.70, EP4-S319A, read-out: % cAMP activity (normalized to WT)): 46.6%
remaining activity at 0.006457 µM ([1]; 1 h, TG6-129 log([M]) -8.19, EP4-S319A, read-out: % cAMP activity (normalized to WT)): 114%
remaining activity at 0.001288 µM ([1]; 1 h, TG6-129 log([M]) -8.89, EP4-S319A, read-out: % cAMP activity (normalized to WT)): 108%
TG6-129 cAMP activity (∆pIC50 from EP4 WT), Mean ([1]; S319A, Mean): -0.460
TG6-129 cAMP activity (∆pIC50 from EP4 WT) ([1]; S319A, single experiments 1st-3rd): -0.435 and -0.502 and -0.443
ΔpIC50 [1, 6]: -0.46 ± 0.02
IC50 [2]: 0.49 µM
remaining activity at 1 µM ([2]; 1 h, TG6-129 log([M]) -6, EP2-M116A, read-out: % cAMP activity (normalized to WT)): 94.8%
TG6-129 cAMP activity (∆pIC50 from EP2 WT), Mean ([2]; M116A, Mean): -0.618
TG6-129 cAMP activity (∆pIC50 from EP2 WT) ([2]; M116A, single experiments 1st-3rd): -0.597 and -0.614 and -0.642
ΔpIC50 [2, 6]: -0.62 ± 0.01
IC50 [3]: 18.6 µM
remaining activity at 100 µM ([3]; 1 h, TG6-129 log([M]) -4.00, EP4-V72A, read-out: % cAMP activity (normalized to WT)): 9.67%
remaining activity at […] ([3]; 1 h, TG6-129 log([M]) -4.70, EP4-V72A, read-out: % cAMP activity (normalized to WT)): 26.1%
remaining activity at […] ([3]; 1 h, TG6-129 log([M]) -5.40, EP4-V72A, read-out: % cAMP activity (normalized to WT)): 41.3%
remaining activity at […] ([3]; 1 h, TG6-129 log([M]) -6.10, EP4-V72A, read-out: % cAMP activity (normalized to WT)): 40.6%
remaining activity at 0.1585 µM ([3]; 1 h, TG6-129 log([M]) -6.80, EP4-V72A, read-out: % cAMP activity (normalized to WT)): 44.9%
remaining activity at 0.03236 µM ([3]; 1 h, TG6-129 log([M]) -7.49, EP4-V72A, read-out: % cAMP activity (normalized to WT)): 51.4%
remaining activity at 0.006457 µM ([3]; 1 h, TG6-129 log([M]) -8.19, EP4-V72A, read-out: % cAMP activity (normalized to WT)): 46.4%
remaining activity at 0.001288 µM ([3]; 1 h, TG6-129 log([M]) -8.89, EP4-V72A, read-out: % cAMP activity (normalized to WT)): 40.4%
TG6-129 cAMP activity (∆pIC50 from EP4 WT), Mean ([3]; V72A, Mean): -0.480
TG6-129 cAMP activity (∆pIC50 from EP4 WT) ([3]; V72A, single experiments 1st-3rd): -0.475 and -0.451 and -0.514
ΔpIC50 [3, 6]: -0.48 ± 0.02
IC50 [4]: 3.63 µM
remaining activity at 0.1 µM ([4]; 1 h, TG6-129 log([M]) -7, EP2-W186A, read-out: % cAMP activity (normalized to WT)): 91.6%
remaining activity at 0.0001 µM ([4]; 1 h, TG6-129 log([M]) -10, EP2-W186A, read-out: % cAMP activity (normalized to WT)): 92.4%
remaining activity at 10 pM ([4]; 1 h, TG6-129 log([M]) -11, EP2-W186A, read-out: % cAMP activity (normalized to WT)): 99.9%
remaining activity at 1 pM ([4]; 1 h, TG6-129 log([M]) -12, EP2-W186A, read-out: % cAMP activity (normalized to WT)): 97.8%
TG6-129 cAMP activity (∆pIC50 from EP2 WT), Mean ([4]; W186A, Mean): -1.465
ΔpIC50 [4, 6]: -1.47 ± 0.16
IC50 [5]: 5.01 µM
remaining activity at 100 µM ([5]; 1 h, TG6-129 log([M]) -4.00, EP4-WT, read-out: % cAMP activity (normalized to WT)): 7.78%
remaining activity at […] ([5]; 1 h, TG6-129 log([M]) -4.70, EP4-WT, read-out: % cAMP activity (normalized to WT)): 22.1%
remaining activity at […] ([5]; 1 h, TG6-129 log([M]) -5.40, EP4-WT, read-out: % cAMP activity (normalized to WT)): 65.6%
remaining activity at […] ([5]; 1 h, TG6-129 log([M]) -6.10, EP4-WT, read-out: % cAMP activity (normalized to WT)): 88.8%
remaining activity at 0.1585 µM ([5]; 1 h, TG6-129 log([M]) -6.80, EP4-WT, read-out: % cAMP activity (normalized to WT)): 91.8%
remaining activity at 0.03236 µM ([5]; 1 h, TG6-129 log([M]) -7.49, EP4-WT, read-out: % cAMP activity (normalized to WT)): 96%
remaining activity at 0.006457 µM ([5]; 1 h, TG6-129 log([M]) -8.19, EP4-WT, read-out: % cAMP activity (normalized to WT)): 103%
remaining activity at 0.001288 µM ([5]; 1 h, TG6-129 log([M]) -8.89, EP4-WT, read-out: % cAMP activity (normalized to WT)): 106%
TG6-129 cAMP activity (∆pIC50 from EP4 WT) ([5]; WT, single experiments 1st-3rd): -0.065 and 0.051 and 0.101
